Converted amounts (≈) assume the structure as drawn. The source made the active and inactive calls. The rule behind the calls is not given here.
Key:
[1] = biological target: T1, UDP-3-O-acyl-N-acetylglucosamine deacetylase (Escherichia coli K-12, UniProt P0A725); assay: Inhibition of Escherichia coli LpxC using UDP-3-O-(R-3-hydroxymyristoyl)GlcNAc as substrate measured after 60 mins by fluorescence analysis
T1 sequence (P0A725 whole entry): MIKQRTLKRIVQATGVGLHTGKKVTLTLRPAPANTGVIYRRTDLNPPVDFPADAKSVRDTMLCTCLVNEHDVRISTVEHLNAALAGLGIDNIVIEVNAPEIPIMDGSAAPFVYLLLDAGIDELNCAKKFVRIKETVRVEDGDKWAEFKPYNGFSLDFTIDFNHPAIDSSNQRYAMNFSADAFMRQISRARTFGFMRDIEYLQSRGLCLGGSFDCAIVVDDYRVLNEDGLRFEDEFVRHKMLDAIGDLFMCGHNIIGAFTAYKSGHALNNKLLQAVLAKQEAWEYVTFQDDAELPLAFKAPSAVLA

[2] = test system: Escherichia coli; assay: Antibacterial activity against wild-type Escherichia coli TG1 after 16 to 20 hrs by agar dilution method; type: functional
[3] = test system: Escherichia coli; assay: Antibacterial activity against Escherichia coli KAM3 harboring acrB deletion mutant after 16 to 20 hrs by agar dilution method; type: functional
[4] = test system: Klebsiella pneumoniae; assay: Antibacterial activity against wild-type Klebsiella pneumoniae ATCC 13883 by agar dilution method; type: functional
[5] = test system: Pseudomonas aeruginosa; assay: Antibacterial activity against Pseudomonas aeruginosa K799/61 measured after 16 to 20 hrs by agar dilution method; type: functional, organism-based
[6] = test system: Acinetobacter baumannii; assay: Antibacterial activity against Acinetobacter baumannii ATCC 19606 measured after 20 to 24 hrs by agar dilution method; type: functional
[7] = Ratio of MIC for wild-type Escherichia coli TG1 to MIC for Escherichia coli KAM3 acrB deletion mutant; type: functional
[8] = test system: Pseudomonas aeruginosa; assay: Antibacterial activity against wild type Pseudomonas aeruginosa K799 measured after 16 to 20 hrs by agar dilution method; type: functional, organism-based
[9] = test system: Pseudomonas aeruginosa; assay: Antibacterial activity against Pseudomonas aeruginosa PAO4009 measured after 16 to 20 hrs by agar dilution method; type: functional, organism-based

Compound: O=C(NO)[C@H]1CN(c2ccc(C#Cc3ccc(CN4CCOCC4)cc3)cc2)C(=O)O1
- IC50 [1]: 260 nM
- MIC [2]: 1 µg/mL (≈ 2.37 µM)
- MIC [3]: 0.13 µg/mL (≈ 0.308 µM)
- MIC [4]: 8 µg/mL (≈ 19 µM)

Compound: O=C(NO)[C@@H]1CN(c2ccc(C#Cc3ccc(CN4CCOCC4)cc3)cc2)C(=O)CO1
- IC50 [1]: 510 nM
- MIC [2]: 2 µg/mL (≈ 4.59 µM)
- MIC [3]: 0.25 µg/mL (≈ 0.574 µM)
- MIC [4]: 16 µg/mL (≈ 36.7 µM)

Compound: O=C(NO)[C@@H]1CN(c2ccc(C#CC#CC3CC3)cc2F)C(=O)O1
- Activity [5]: inactive
- IC50 [1]: 200 nM
- MIC [2]: 0.5 µg/mL (≈ 1.52 µM)
- MIC [3]: 0.25 µg/mL (≈ 0.762 µM)
- MIC [4]: 4 µg/mL (≈ 12.2 µM)
- Activity [6]: inactive
- Ratio [7]: 2
- Activity [8]: inactive
- Activity [9]: inactive

Compound: O=C(NO)[C@@H]1CN(c2ccc(C#Cc3ccc(CN4CCOCC4)cc3)cc2)C(=O)N1
- IC50 [1]: 700 nM
- MIC [2]: 8 µg/mL (≈ 19 µM)
- MIC [3]: 0.5 µg/mL (≈ 1.19 µM)
- MIC [4]: > 32 µg/mL

Compound: C[C@@H](O)[C@H](NC(=O)c1ccc(C#Cc2ccc(CN3CCOCC3)cc2)cc1)C(=O)NO
- MIC [2]: 0.13 µg/mL (≈ 0.297 µM)
- MIC [3]: 0.01 µg/mL (≈ 0.0229 µM)
- MIC [4]: 0.25 µg/mL (≈ 0.571 µM)

Compound: O=C(NO)[C@@H]1CN(c2ccc(C#CC#CC3CC3)c(F)c2)C(=O)O1
- Activity [5]: inactive
- IC50 [1]: 6 nM
- MIC [2]: 0.016 µg/mL (≈ 0.0487 µM)
- MIC [3]: 0.004 µg/mL (≈ 0.0122 µM)
- MIC [4]: 0.063 µg/mL (≈ 0.192 µM)
- Activity [6]: inactive
- Ratio [7]: 2
- Activity [8]: inactive
- Activity [9]: inactive

Compound: O=C(NO)[C@@H]1CN(c2ccc(C#CC#CC3CC3)cc2)C(=O)O1
- Activity [5]: inactive
- IC50 [1]: 18 nM
- MIC [2]: 0.063 µg/mL (≈ 0.203 µM)
- MIC [3]: 0.016 µg/mL (≈ 0.0516 µM)
- MIC [4]: 0.25 µg/mL (≈ 0.806 µM)
- Activity [6]: inactive
- Ratio [7]: 2
- Activity [8]: inactive
- Activity [9]: inactive

Compound: COc1cc(C#CC#CC2CC2)ccc1N1C[C@@H](C(=O)NO)OC1=O
- IC50 [1]: 2000 nM
- MIC [2]: 4 µg/mL (≈ 11.8 µM)
- MIC [3]: 0.5 µg/mL (≈ 1.47 µM)
- MIC [4]: 32 µg/mL (≈ 94 µM)
- Ratio [7]: 2

Compound: O=C(NO)[C@@H]1CN(c2ccc(C#CC#CCCO)cc2)C(=O)O1
- IC50 [1]: 140 nM
- MIC [2]: 0.5 µg/mL (≈ 1.59 µM)
- MIC [3]: 0.125 µg/mL (≈ 0.398 µM)
- MIC [4]: 8 µg/mL (≈ 25.5 µM)
- Ratio [7]: 2

Compound: O=C(NO)c1ccc(=O)n(-c2ccc(C#Cc3ccc(CN4CCOCC4)cc3)cc2)c1
- IC50 [1]: 1000 nM
- MIC [2]: 8 µg/mL (≈ 18.6 µM)
- MIC [3]: 1 µg/mL (≈ 2.33 µM)
- MIC [4]: 64 µg/mL (≈ 149 µM)

Compound: Nc1cc(N2C[C@@H](C(=O)NO)OC2=O)ccc1C#CC#CC1CC1
- IC50 [1]: 270 nM
- MIC [2]: 0.25 µg/mL (≈ 0.768 µM)
- MIC [3]: 0.063 µg/mL (≈ 0.194 µM)
- MIC [4]: 2 µg/mL (≈ 6.15 µM)
- Ratio [7]: 2

Compound: O=C(NO)[C@@H]1CN(c2ccc(C#CC#C[C@H]3C[C@@H]3CO)cc2)C(=O)O1 (mixture of isomers)
- IC50 [1]: 20 nM
- MIC [2]: 0.125 µg/mL
- MIC [3]: 0.016 µg/mL
- MIC [4]: 1 µg/mL
- Ratio [7]: 2

Compound: O=C(NO)[C@@H]1CN(c2ccc(C#CC#CC3CC3)c([N+](=O)[O-])c2)C(=O)O1
- IC50 [1]: 27 nM
- MIC [2]: 0.125 µg/mL (≈ 0.352 µM)
- MIC [3]: 0.31 µg/mL (≈ 0.872 µM)
- MIC [4]: 1 µg/mL (≈ 2.81 µM)
- Ratio [7]: 2

Compound: O=C(NO)[C@@H]1CN(c2ccc(C#Cc3ccc(CN4CCOCC4)cc3)cc2)C(=O)O1
- Activity [5]: inactive
- IC50 [1]: 130 nM
- MIC [2]: 0.5 µg/mL (≈ 1.19 µM)
- MIC [3]: 0.06 µg/mL (≈ 0.142 µM)
- MIC [4]: 2 µg/mL (≈ 4.75 µM)
- Activity [6]: inactive
- Ratio [7]: 2
- Activity [8]: inactive
- Activity [9]: inactive

Compound: O=C(NO)[C@@H]1CN(c2ccc(C#CC#CCCCO)cc2)C(=O)O1
- IC50 [1]: 58 nM
- MIC [2]: 0.125 µg/mL (≈ 0.381 µM)
- MIC [3]: 0.031 µg/mL (≈ 0.0944 µM)
- MIC [4]: 2 µg/mL (≈ 6.09 µM)
- Ratio [7]: 2

Reference: ChEMBL document CHEMBL3826886, “LpxC Inhibitors: Design, Synthesis, and Biological Evaluation of Oxazolidinones as Gram-negative Antibacterial Agents” (ACS Med Chem Lett, 2016)
